Holding throughout (type): functional
For assay [1], the system named is Aspergillus niger. The experiment in a line: Antifungal activity against Aspergillus niger MTCC 1344 after 24 hr by paper disk method. The note with it: MTCC 1344, 24 h.
For assay [2], the system named is Candida albicans. In words: Antifungal activity against Candida albicans MTCC 227 after 24 hr by paper disk method. Conditions: MTCC 227, 24 h.
Assay [3] concerns Saccharomyces cerevisiae. In words: Antifungal activity against Saccharomyces cerevisiae MTCC 36 after 24 hr by paper disk method. Conditions: MTCC 36, 24 h.
Assay [4] relates to Rhizopus arrhizus. The experiment in a line: Antifungal activity against Rhizopus oryzae MTCC 262 after 24 hr by paper disk method. Conditions: MTCC 262, 24 h.
Assay [5] has as its system Staphylococcus aureus. In words: Antibacterial activity against Staphylococcus aureus NCIM 2079 after 18 to 20 hr by plate method.
The test system of assay [6] is Bacillus subtilis. In words: Antibacterial activity against Bacillus subtilis NCIM 2921 after 18 to 20 hr by plate method.
The test system of assay [7] is Escherichia coli. In words: Antibacterial activity against Escherichia coli NCIM 2068 after 18 to 20 hr by plate method.
For assay [8], the system named is Pseudomonas aeruginosa. In words: Antibacterial activity against Pseudomonas aeruginosa NCIM 2957 after 18 to 20 hr by plate method.

Values after ≈ are worked out from the molar mass of the structure shown.

Usually MIC stands for the lowest concentration found to suppress growth. The low end stands for a more susceptible organism, the high end for a less susceptible organism. Consider `C#CCn1c(C(F)(F)F)nc2ccc([N+](=O)[O-])cc21`, for which the MIC in assay [1] amounted to 650 µg/mL (≈ 2410 µM); in assay [2], 600 µg/mL (≈ 2230 µM); in assay [3], 700 µg/mL (≈ 2600 µM); in assay [4] it was 700 µg/mL (≈ 2600 µM).

`O=[N+]([O-])c1ccc2c(c1)nc(C(F)(F)F)n2CCCCCl`: the Activity result in assay [5], in assay [6], in assay [7] and in assay [8] was “Dose-dependent effect” in each case. The MIC in assay [5] is 800 µg/mL (≈ 2490 µM); in assay [6] it was 750 µg/mL (≈ 2330 µM); in assay [1] it was 450 µg/mL (≈ 1400 µM); in assay [2], 500 µg/mL (≈ 1550 µM); in assay [3], 800 µg/mL (≈ 2490 µM); in assay [7], 600 µg/mL (≈ 1870 µM). Also, the MIC in assay [4] amounted to 500 µg/mL (≈ 1550 µM); in assay [8], 800 µg/mL (≈ 2490 µM).

For `CCOC(=O)Cn1c(C(F)(F)C(F)(F)F)nc2cc(C(=O)c3ccccc3)ccc21`, the Activity result in assay [5], in assay [6], in assay [7] and in assay [8] was “Dose-dependent effect” throughout. For the same compound, the MIC in assay [5] stood at 700 µg/mL (≈ 1640 µM); in assay [6] it was 900 µg/mL (≈ 2110 µM); in assay [1] it was 1000 µg/mL (≈ 2350 µM); in assay [2], 700 µg/mL (≈ 1640 µM); in assay [3] it was 800 µg/mL (≈ 1880 µM); in assay [7], 650 µg/mL (≈ 1520 µM). For the same compound, the values for the MIC in assay [4] and in assay [8] were 800 µg/mL (≈ 1880 µM) and 700 µg/mL (≈ 1640 µM), respectively.

Consider `CCOC(=O)Cn1c(C(F)(F)F)nc2cc(C(=O)c3ccccc3)ccc21`, for which the MIC in assay [1] is 800 µg/mL (≈ 2130 µM); in assay [2], 500 µg/mL (≈ 1330 µM); in assay [3], 600 µg/mL (≈ 1590 µM); in assay [4], 450 µg/mL (≈ 1200 µM).

On to `CCn1c(C(F)(F)F)nc2cc([N+](=O)[O-])ccc21`, for which the MIC in assay [1] was determined as 750 µg/mL (≈ 2890 µM); in assay [2], 700 µg/mL (≈ 2700 µM); in assay [3], 850 µg/mL (≈ 3280 µM); in assay [4], 700 µg/mL (≈ 2700 µM).

On to `CCOC(=O)Cn1c(C(F)(F)F)nc2ccc(C(=O)c3ccccc3)cc21`, for which the MIC came out at 700 µg/mL (≈ 1860 µM) in assay [1], 400 µg/mL (≈ 1060 µM) in assay [2], 500 µg/mL (≈ 1330 µM) in assay [3] and 400 µg/mL (≈ 1060 µM) in assay [4].

On to `O=[N+]([O-])c1ccc2c(c1)nc(C(F)(F)C(F)(F)F)n2CCCCCl`, for which the MIC in assay [1] was 650 µg/mL (≈ 1750 µM); in assay [2] it was 700 µg/mL (≈ 1880 µM); in assay [3] it was 750 µg/mL (≈ 2020 µM); in assay [4], 700 µg/mL (≈ 1880 µM).

Consider `O=[N+]([O-])c1ccc2nc(C(F)(F)F)n(CCCCCl)c2c1`, for which the Activity result in assay [5], in assay [6], in assay [7] and in assay [8] was “Dose-dependent effect” throughout. Besides, the MIC in assay [5] is 800 µg/mL (≈ 2490 µM); in assay [6], 700 µg/mL (≈ 2180 µM); in assay [1] it was 650 µg/mL (≈ 2020 µM); in assay [2] it was 600 µg/mL (≈ 1870 µM); in assay [3], 700 µg/mL (≈ 2180 µM); in assay [4] it was 400 µg/mL (≈ 1240 µM).

As to `N#CCn1c(C(F)(F)F)nc2ccc([N+](=O)[O-])cc21`, the values for the MIC in assay [3] and in assay [4] were 900 µg/mL (≈ 3330 µM) and 800 µg/mL (≈ 2960 µM), respectively.

In the case of `CCOC(=O)Cn1c(C(F)(F)F)nc2cc([N+](=O)[O-])ccc21`, the Activity result in assay [5], in assay [6], in assay [7] and in assay [8] was “Dose-dependent effect” each time. In addition, the MIC came to 800 µg/mL (≈ 2520 µM) in assay [5]; 800 µg/mL (≈ 2520 µM) in assay [6]; 550 µg/mL (≈ 1730 µM) in assay [1]; 400 µg/mL (≈ 1260 µM) in assay [2]; 600 µg/mL (≈ 1890 µM) in assay [3]; 700 µg/mL (≈ 2210 µM) in assay [7]. In addition, the MIC was 600 µg/mL (≈ 1890 µM) in assay [4] and 900 µg/mL (≈ 2840 µM) in assay [8].

On to `CCn1c(C(F)(F)F)nc2ccc([N+](=O)[O-])cc21`, for which the MIC in assay [1] was found to be 800 µg/mL (≈ 3090 µM); in assay [2], 900 µg/mL (≈ 3470 µM); in assay [3], 800 µg/mL (≈ 3090 µM); in assay [4] it was 850 µg/mL (≈ 3280 µM).

On to `CCOC(=O)Cn1c(C(F)(F)C(F)(F)F)nc2ccc(C(=O)c3ccccc3)cc21`, for which the Activity entry in assay [5], in assay [6], in assay [7] and in assay [8] was “Dose-dependent effect” throughout. In addition, the MIC in assay [5] came to 900 µg/mL (≈ 2110 µM); in assay [6] it was 850 µg/mL (≈ 1990 µM); in assay [1], 900 µg/mL (≈ 2110 µM); in assay [2] it was 700 µg/mL (≈ 1640 µM); in assay [3], 700 µg/mL (≈ 1640 µM); in assay [7], 600 µg/mL (≈ 1410 µM). Besides, the MIC in assay [4] came out at 850 µg/mL (≈ 1990 µM); in assay [8], 900 µg/mL (≈ 2110 µM).

For the compound `O=[N+]([O-])c1ccc2nc(C(F)(F)C(F)(F)F)n(CCCCCl)c2c1`, the MIC in assay [1] was 700 µg/mL (≈ 1880 µM); in assay [2], 800 µg/mL (≈ 2150 µM); in assay [3], 750 µg/mL (≈ 2020 µM); in assay [4] it was 800 µg/mL (≈ 2150 µM).

For `O=[N+]([O-])c1ccc2c(c1)nc(C(F)(F)F)n2CCCCl`, the Activity entry in assay [5], in assay [6], in assay [7] and in assay [8] was “Dose-dependent effect” throughout. Besides, the MIC in assay [5] amounted to 300 µg/mL (≈ 975 µM); in assay [6], 350 µg/mL (≈ 1140 µM); in assay [1], 300 µg/mL (≈ 975 µM); in assay [2], 300 µg/mL (≈ 975 µM); in assay [3], 400 µg/mL (≈ 1300 µM); in assay [7], 200 µg/mL (≈ 650 µM). The MIC in assay [4] turned out to be 200 µg/mL (≈ 650 µM); in assay [8], 400 µg/mL (≈ 1300 µM).

As for `C#CCn1c(C(F)(F)F)nc2cc([N+](=O)[O-])ccc21`, the MIC in assay [1] worked out at 600 µg/mL (≈ 2230 µM); in assay [2] it was 700 µg/mL (≈ 2600 µM); in assay [3], 750 µg/mL (≈ 2790 µM); in assay [4], 700 µg/mL (≈ 2600 µM).

Regarding `CCOC(=O)Cn1c(C(F)(F)F)nc2ccc([N+](=O)[O-])cc21`, the Activity entry in assay [5], in assay [6], in assay [7] and in assay [8] was “Dose-dependent effect” throughout. Moreover, the MIC in assay [5] was 900 µg/mL (≈ 2840 µM); in assay [6], 950 µg/mL (≈ 2990 µM); in assay [1], 500 µg/mL (≈ 1580 µM); in assay [2], 450 µg/mL (≈ 1420 µM); in assay [3] it was 600 µg/mL (≈ 1890 µM); in assay [7], 800 µg/mL (≈ 2520 µM). The MIC in assay [4] was 700 µg/mL (≈ 2210 µM); in assay [8], 850 µg/mL (≈ 2680 µM).

For the compound `CCOC(=O)Cn1c(C(F)(F)C(F)(F)F)nc2cc([N+](=O)[O-])ccc21`, the Activity entry in assay [5], in assay [6], in assay [7] and in assay [8] was “Dose-dependent effect” each time. In addition, the MIC in assay [1] amounted to 850 µg/mL (≈ 2310 µM); in assay [2] it was 800 µg/mL (≈ 2180 µM); in assay [3], 900 µg/mL (≈ 2450 µM); in assay [7] it was 900 µg/mL (≈ 2450 µM); in assay [4] it was 950 µg/mL (≈ 2590 µM); in assay [8] it was 800 µg/mL (≈ 2180 µM).

Regarding `CCOC(=O)Cn1c(C(F)(F)C(F)(F)F)nc2ccc([N+](=O)[O-])cc21`, the Activity result in assay [5], in assay [6], in assay [7] and in assay [8] was “Dose-dependent effect” throughout. Also, the MIC in assay [5] was 800 µg/mL (≈ 2180 µM); in assay [1], 800 µg/mL (≈ 2180 µM); in assay [2] it was 900 µg/mL (≈ 2450 µM); in assay [3] it was 900 µg/mL (≈ 2450 µM).

Consider `O=[N+]([O-])c1ccc2nc(C(F)(F)F)n(CCCCl)c2c1`, for which the Activity entry in assay [5], in assay [6], in assay [7] and in assay [8] was “Dose-dependent effect” in each case. In addition, the MIC in assay [5] amounted to 350 µg/mL (≈ 1140 µM); in assay [6], 300 µg/mL (≈ 975 µM); in assay [1], 350 µg/mL (≈ 1140 µM); in assay [2] it was 400 µg/mL (≈ 1300 µM); in assay [3], 500 µg/mL (≈ 1630 µM); in assay [7] it was 400 µg/mL (≈ 1300 µM). Also, the MIC in assay [4] came to 300 µg/mL (≈ 975 µM); in assay [8], 450 µg/mL (≈ 1460 µM).
